BindingDB's records for doi:10.1124/mol.105.012005 (Wyeth Research, 2005)

Experiments:
[1] = target: T1, Excitatory amino acid transporter 3 (Homo sapiens, UniProt P43005)
T1 sequence (P43005 whole entry): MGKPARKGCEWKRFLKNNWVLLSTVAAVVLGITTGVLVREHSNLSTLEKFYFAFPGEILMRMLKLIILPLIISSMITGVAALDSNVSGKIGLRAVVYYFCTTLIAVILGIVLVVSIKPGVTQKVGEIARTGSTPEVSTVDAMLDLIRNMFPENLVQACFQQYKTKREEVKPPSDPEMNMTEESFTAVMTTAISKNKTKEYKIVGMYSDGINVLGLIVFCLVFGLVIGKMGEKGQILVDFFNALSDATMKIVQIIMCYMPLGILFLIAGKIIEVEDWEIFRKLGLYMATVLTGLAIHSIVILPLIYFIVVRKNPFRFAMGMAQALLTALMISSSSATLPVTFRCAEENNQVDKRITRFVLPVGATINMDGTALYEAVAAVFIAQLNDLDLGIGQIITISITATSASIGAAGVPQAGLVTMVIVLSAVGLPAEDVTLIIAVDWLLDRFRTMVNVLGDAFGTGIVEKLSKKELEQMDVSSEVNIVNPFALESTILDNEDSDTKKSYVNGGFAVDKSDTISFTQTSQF

[2] = target: Excitatory amino acid transporter 1 (Homo sapiens, UniProt P43003)
Sequence of Excitatory amino acid transporter 1 (P43003 whole entry): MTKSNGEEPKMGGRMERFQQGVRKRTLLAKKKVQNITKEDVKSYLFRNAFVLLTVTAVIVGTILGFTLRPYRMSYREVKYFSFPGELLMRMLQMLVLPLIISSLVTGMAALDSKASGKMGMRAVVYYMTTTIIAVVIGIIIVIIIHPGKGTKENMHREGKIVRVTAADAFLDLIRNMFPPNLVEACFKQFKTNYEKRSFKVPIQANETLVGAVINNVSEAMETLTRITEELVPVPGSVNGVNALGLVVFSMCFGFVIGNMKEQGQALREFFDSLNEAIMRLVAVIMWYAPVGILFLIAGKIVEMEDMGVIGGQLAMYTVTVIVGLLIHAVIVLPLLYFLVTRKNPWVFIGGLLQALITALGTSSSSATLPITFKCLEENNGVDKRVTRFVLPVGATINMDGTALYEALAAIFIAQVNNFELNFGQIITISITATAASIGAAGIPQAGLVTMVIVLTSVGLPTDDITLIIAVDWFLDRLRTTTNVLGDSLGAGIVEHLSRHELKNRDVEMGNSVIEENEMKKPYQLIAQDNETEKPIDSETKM

| IC50 [1] | IC50 [2] | SMILES |
| --- | --- | --- |
| 1.45 µM | – | Cc1cc(C(=O)NC[C@H](N)C(=O)O)ccc1-c1ccc(Cl)cc1 [3-[3-Methyl-4-(4-chlorophenyl)benzoylamino]alanine] |
| 1.84 µM | 3.43 µM | N[C@@H](CC(=O)Nc1ccc2c(c1)Cc1cc(C(F)(F)F)ccc1-2)C(=O)O [WAY-212922] |
| 6.56 µM | 1.97 µM | Cc1ccccc1-c1ccc(NC(=O)C[C@H](N)C(=O)O)cc1 [WAY-213394] |
